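Tested at 5 concentrations; 48 h exposure; 96-well plates; endpoints linearly interpolated, else capped at highest concentration. Definition used: TGI = concentration required for complete inhibition of growth.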
Key:
Test in all cases: NCI tumour cell line growth inhibition, 48 h
LOX IMVI melanoma = system: LOX IMVI melanoma
NCI/ADR-RES ovarian = system: NCI/ADR-RES ovarian
HL-60(TB) leukemia = system: HL-60(TB) leukemia
OVCAR-4 ovarian = system: OVCAR-4 ovarian
UACC-257 melanoma = system: UACC-257 melanoma
UO-31 renal = system: UO-31 renal
RXF 393 renal = system: RXF 393 renal
EKVX NSCLC = system: EKVX NSCLC
A498 renal = system: A498 renal
OVCAR-5 ovarian = system: OVCAR-5 ovarian

| SMILES | TGI (LOX IMVI melanoma) [µM] | TGI (NCI/ADR-RES ovarian) [µM] | TGI (HL-60(TB) leukemia) [µM] | TGI (OVCAR-4 ovarian) [µM] | TGI (UACC-257 melanoma) [µM] | TGI (UO-31 renal) [µM] | TGI (RXF 393 renal) [µM] | TGI (EKVX NSCLC) [µM] | TGI (A498 renal) [µM] | TGI (OVCAR-5 ovarian) [µM] |
| --- | --- | --- | --- | --- | --- | --- | --- | --- | --- | --- |
| O=C1O/C(=C\c2ccc(O)cc2)C(c2ccc(O)c(Cl)c2)=C1Br | 61.2 | 65.4 | 51.2 | 38.4 | 26.8 | 36.4 | 59.8 | 40.7 | 34.6 | 35.4 |
| CCOC(=O)Cc1nc2c(=O)[nH]cnc2n1C1OC(COC(C)=O)C(OC(C)=O)C1OC(C)=O (stereo not given) | > 100 | > 100 | > 100 | > 100 | > 100 | > 100 | > 100 | > 100 | > 100 | > 100 |
| CN(C)CCn1c(=O)c2ccc(NCCNCCO)c3c(=O)c4cc(O)ccc4n(c1=O)c23 | 4.42 | > 100 | 4.61 | 3.55 | 19.2 | 28.2 | 3.73 | 14.3 | 25.7 | 16.1 |
| N#Cc1nnc2c3c(-c4ccc(Cl)cc4)c(C#N)c(=O)[nH]c3nn2c1N | 8.01 | 54.9 | > 100 | 51 | 38.5 | 20.7 | 14.9 | 30.9 | 10.9 | 65.4 |
| OCc1ccccc1OC1OC(CO)C(O)C(O)C1O (stereo not given) | > 100 | > 100 | > 100 | > 100 | > 100 | > 100 | > 100 | > 100 | > 100 | > 100 |
